These results are taken from patent US12590100B2, “Tetrahydro-spiroindoline-pyrrolopyrrole-triones inhibitors of the NRF2-β-TrCP interaction for use in the treatment of fatty liver disease” (Universidad Autonoma De Madrid, priority 2021, dated 2026).

One assay deals with NRF2. As to the kind of experiment: NRF2 and HO-1 protein levels in mouse tissues after IP treatment. To be noted: C57BL/6 mice. Type of assay: in vivo. On the procedure:
FIG. 9. PHAR activates NRF2 and HO-1 in liver. A), UV and MS spectrum derived from the HPLC-MS analysis of PHAR dissolved in methanol for the identification of peaks associated with the compound. A blue rectangle surrounds the mass associated with PHAR. (B-D), the mice were treated with the vehicle (Tween-80+PBS, 1:13), 50 mg/kg of PHAR, or 50 mg/kg of SFN (saline) as a positive control by means of intraperitoneal (IP) injection for 2 hours. B), HPLC-MS UV and MS spectra derived from representative liver samples of both experimental groups used for determining PHAR levels in the liver 120 min after a single IP injection of 50 mg/kg. A blue rectangle surrounds the mass associated with PHAR. C), representative immunoblots showing NRF2, HO1, and LAMINB protein levels as the liver extract loading control. D), densitometric analysis of NRF2 protein levels of the representative immunoblots shown in (C), expressed as a ratio of NRF2/LAMINB. Statistical analysis was performed with one-way ANOVA followed by the Bonferroni test to compare inter-group differences. ***p<0.001 vs. vehicle. E) and F), the mice were treated daily with vehicle (Tween-80+PBS, 1:13) or 50 mg/kg of PHAR by means of intraperitoneal injection for 5 days. E), representative immunoblots showing NRF2, HO1, and LAMINB protein levels as loading control in brain, liver and kidney. F), densitometric analysis of NRF2 and HO1 protein levels in the liver tissue of the representative immunoblots shown in (E), expressed as a ratio of NRF2/LAMINB or HO1/LAMINB levels. Statistical analysis was performed with a Student t test to compare inter-group differences. **p<0.01 vs. vehicle.
Once the mechanism of action of PHAR was deciphered, the capacity thereof to induce NRF2 levels in a murine model was evaluated. C57BL/6 mice received a single intraperitoneal (IP) injection of 50 mg/kg PHAR (Tween-80+PBS, 1:13) or 50 mg/kg of SFN (saline) as a positive control. The UV spectrum derived from the HPLC-MS study of the PHAR compound dissolved in methanol alone helped the identification of the peak associated with the compound for subsequent identification in the tissue analysis. […] Taking this as a reference point, liver tissue analysis was performed to check for the presence of PHAR therein.
For this reason, C57BL/6 mice were treated daily by IP route for 5 days with 50 mg/kg of vehicle or 50 mg/kg of PHAR.

The test system of another assay is NRF2-regulated genes. The experiment in a line: mRNA of NRF2-regulated genes in MEFs (qRT-PCR). Format: cell-based, mouse. To be noted: PHAR 10 μM, 8 h. On the procedure: FIG. 4. PHAR activates the NRF2 pathway. MEFs in serum-depleted conditions were subjected to (A-C) 1 μM, 3 μM, or 10 μM of PHAR and 10 μM of SFN as a positive control for 16 h; or (D-F) 10 μM of PHAR for the indicated times. In both experiments, 0.1% DMSO was used as a vehicle. A), representative immunoblots of NRF2, HO1, KEAP1, LAMINB, and GAPDH as loading controls. B) and C), densitometric analysis of NRF2 and HO1 protein levels of the representative immunoblots depicted in (A), expressed as a ratio of NRF2/LAMINB or HO1/GAPDH. The data is depicted as means±SEM (n=3). Statistical analysis was performed with one-way ANOVA followed by the Bonferroni test to check inter-group differences. *p<0.05; ***p<0.001 vs. 0. D), representative immunoblots of NRF2, HO1, KEAP1, LAMINB, and GAPDH as loading controls. E) and F), Densitometric analysis of NRF2 and HO1 protein levels of the representative immunoblots of (D), expressed as a ratio of NRF2/LAMINB or HO1/GAPDH. The data is depicted as means±SEM (n=3). Statistical analysis was performed with one-way ANOVA followed by the Bonferroni test to check inter-group differences. *p<0.05; ***p<0.001 vs. 0. […] Luciferase activity was measured after 16 h of treatment. […] The mRNA levels of Hmox1, Nqo1, Aox1, Glc, and Gclm after 8 h of treatment were determined by means of pRT-PCR and normalized by means of average LaminB, Gapdh, and β-actin. […]

For the compound `O=C1[C@@H]2[C@H](Cc3c[nH]c4ccccc34)N[C@]3(C(=O)Nc4ccc(Cl)cc43)[C@@H]2C(=O)N1c1ccc2c(c1)OCCO2` [PHAR], in the assay on NRF2 (IP 50 mg/kg daily for 5 days), the “HO1 levels in kidney” value is on record as “not further increased”; the “NRF2 and HO1 levels in brain” value is listed as “not modified”. In the assay on NRF2 (IP 50 mg/kg daily for 5 days, 120 minutes after last administration), the “NRF2 and HO-1 in liver” value is “significant increase of NRF2 and HO-1 in liver”. For the same compound, in the assay on NRF2 (single IP 50 mg/kg, 120 min), the “liver HO-1 levels” value is given as “did not result in increased HO-1 levels” and the “liver NRF2 levels” value is reported as “significant NRF2 accumulation”. The “transcripts of Hmox1, Nqo1, Aox1, Gclc, Gclm” value with NRF2-regulated genes is “increase in the corresponding transcripts was observed in all the cases”.
